According to ChEMBL document CHEMBL1201862, “PubChem BioAssay data set” (2004):
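Protocol summary: plate cells (96-well), add compound at 5 concentrations, incubate 48 h, interpolate endpoints linearly. GI50 marks 50% less growth.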 Calls of active or inactive are those of the source. Rule as the data show it: active = GI50 up to about 1.1 µM and inactive = higher.

How the values were obtained:
Assay in all cases: NCI anticancer screen, dose series, 48 h
BT-549 = test system: BT-549
CAKI-1 = test system: CAKI-1
CCRF-CEM = test system: CCRF-CEM
DU-145 = test system: DU-145
MCF7 = test system: MCF7
MDA-N = test system: MDA-N
NCI-H226 = test system: NCI-H226
NCI/ADR-RES = test system: NCI/ADR-RES
OVCAR-4 = test system: OVCAR-4
OVCAR-8 = test system: OVCAR-8
PC-3 = test system: PC-3
RXF 393 = test system: RXF 393
SF-539 = test system: SF-539
SK-MEL-5 = test system: SK-MEL-5
SK-OV-3 = test system: SK-OV-3
SN12C = test system: SN12C
SNB-19 = test system: SNB-19
T47D = test system: T47D
TK-10 = test system: TK-10
UACC-62 = test system: UACC-62

Measured: GI50

O=C1NC(N2CCCC(CO)C2)=N/C1=C\c1ccc(Cl)cc1 (stereo not given)
inactive: BT-549 > 100 µM | CAKI-1 > 100 µM | CCRF-CEM > 100 µM | DU-145 > 100 µM | MCF7 > 100 µM | MDA-N > 100 µM | NCI-H226 > 100 µM | NCI/ADR-RES > 100 µM | OVCAR-4 > 100 µM | OVCAR-8 > 100 µM | PC-3 > 100 µM | RXF 393 > 100 µM | SF-539 > 100 µM | SK-MEL-5 > 100 µM | SK-OV-3 > 100 µM | SN12C > 100 µM | SNB-19 > 100 µM | T47D 75.9 µM | TK-10 > 100 µM | UACC-62 > 100 µM

CCOP(=O)(OCC)C1=C(c2ccccc2)OC(N)=C(C#N)C1c1ccc(Cl)cc1 (stereo not given)
inactive: BT-549 > 100 µM | CAKI-1 > 100 µM | CCRF-CEM 30.1 µM | DU-145 > 100 µM | MCF7 > 100 µM | MDA-N > 100 µM | NCI-H226 > 100 µM | NCI/ADR-RES > 100 µM | OVCAR-4 > 100 µM | OVCAR-8 > 100 µM | PC-3 > 100 µM | RXF 393 > 100 µM | SF-539 66.1 µM | SK-MEL-5 > 100 µM | SK-OV-3 > 100 µM | SN12C > 100 µM | SNB-19 > 100 µM | T47D > 100 µM | TK-10 > 100 µM | UACC-62 > 100 µM

CCOC(=O)/C=C(/OCC)[C@@H]1C(C(=O)c2ccc(Cl)cc2)[C@@H]1/C(=C\C(=O)OCC)OCC (stereo not given in full)
inactive: BT-549 48.5 µM | CAKI-1 16.9 µM | CCRF-CEM 5.69 µM | DU-145 47.1 µM | MCF7 11.2 µM | MDA-N 17.5 µM | NCI-H226 6.27 µM | NCI/ADR-RES 3.6 µM | OVCAR-4 67.3 µM | OVCAR-8 6.56 µM | PC-3 5.89 µM | RXF 393 14.3 µM | SF-539 22.1 µM | SK-MEL-5 4.41 µM | SK-OV-3 27.2 µM | SN12C 17.7 µM | SNB-19 11.9 µM | T47D 6.01 µM | TK-10 6.32 µM | UACC-62 28.8 µM

O[C@H]1[C@H](O)[C@@H](Cn2nnc(-c3ccccc3)c2-c2ccccc2)OCO[C@@H]1Cn1nnc(-c2ccccc2)c1-c1ccccc1
inactive: BT-549 5.31 µM | CAKI-1 5.73 µM | CCRF-CEM 3.53 µM | DU-145 7.4 µM | MCF7 3.24 µM | MDA-N 3.84 µM | NCI-H226 5.9 µM | NCI/ADR-RES 7.24 µM | OVCAR-4 10.5 µM | OVCAR-8 4.01 µM | PC-3 2.68 µM | RXF 393 2.97 µM | SF-539 3.16 µM | SK-MEL-5 4.32 µM | SK-OV-3 3.38 µM | SN12C 2.36 µM | SNB-19 8.89 µM | T47D 7.98 µM | TK-10 5.14 µM | UACC-62 2.99 µM

Nn1c(=O)[nH]c2ncn(Cc3ccccc3)c2c1=O
inactive: BT-549 > 100 µM | CAKI-1 > 100 µM | CCRF-CEM > 100 µM | DU-145 > 100 µM | MCF7 > 100 µM | MDA-N > 100 µM | NCI-H226 > 100 µM | NCI/ADR-RES > 100 µM | OVCAR-4 > 100 µM | OVCAR-8 > 100 µM | PC-3 > 100 µM | RXF 393 > 100 µM | SF-539 > 100 µM | SK-MEL-5 > 100 µM | SK-OV-3 > 100 µM | SN12C > 100 µM | SNB-19 > 100 µM | T47D > 100 µM | TK-10 > 100 µM | UACC-62 > 100 µM

Cc1cc2nc3c(C#N)c4c(c(Nc5ccc(F)cc5)n3c2cc1C)CCC4
inactive: BT-549 > 100 µM | CAKI-1 > 100 µM | CCRF-CEM > 100 µM | DU-145 > 100 µM | MCF7 > 100 µM | MDA-N > 100 µM | NCI-H226 > 100 µM | NCI/ADR-RES > 100 µM | OVCAR-4 > 100 µM | OVCAR-8 > 100 µM | PC-3 > 100 µM | RXF 393 > 100 µM | SF-539 > 100 µM | SK-MEL-5 > 100 µM | SK-OV-3 > 100 µM | SN12C > 100 µM | SNB-19 > 100 µM | T47D > 100 µM | TK-10 > 100 µM | UACC-62 > 100 µM

Nc1cc2[nH]cnc2c(=O)[nH]1 [DEZAGUANINE]
inactive: BT-549 > 123 µM | CAKI-1 11 µM | CCRF-CEM 7.93 µM | DU-145 5.43 µM | MCF7 21.9 µM | MDA-N 15.5 µM | NCI-H226 77.1 µM | NCI/ADR-RES 50.9 µM | OVCAR-4 20.2 µM | OVCAR-8 40.2 µM | PC-3 9.29 µM | RXF 393 41.7 µM | SF-539 16 µM | SK-MEL-5 63.7 µM | SK-OV-3 5.12 µM | SN12C 14.6 µM | SNB-19 > 264 µM | T47D 89.1 µM | TK-10 13.9 µM | UACC-62 12.9 µM

CCN(CC)CCOc1ccc(N2Cc3ccccc3C2=O)cc1
inactive: BT-549 > 10 µM | CAKI-1 > 10 µM | CCRF-CEM > 10 µM | DU-145 > 10 µM | MCF7 > 10 µM | MDA-N > 10 µM | NCI-H226 > 10 µM | NCI/ADR-RES > 10 µM | OVCAR-4 > 10 µM | OVCAR-8 > 10 µM | PC-3 > 10 µM | RXF 393 > 10 µM | SF-539 > 10 µM | SK-MEL-5 > 10 µM | SK-OV-3 > 10 µM | SN12C > 10 µM | SNB-19 > 10 µM | T47D > 10 µM | TK-10 > 10 µM | UACC-62 > 10 µM

COc1ccc(N)c(C(O)CCNC(C)=O)c1 (stereo not given)
inactive: BT-549 > 100 µM | CAKI-1 > 100 µM | CCRF-CEM > 100 µM | DU-145 > 100 µM | MCF7 > 100 µM | MDA-N > 100 µM | NCI-H226 > 100 µM | NCI/ADR-RES > 100 µM | OVCAR-4 > 100 µM | OVCAR-8 > 100 µM | PC-3 > 100 µM | RXF 393 > 100 µM | SF-539 > 100 µM | SK-MEL-5 > 100 µM | SK-OV-3 > 100 µM | SN12C > 100 µM | SNB-19 > 100 µM | T47D > 100 µM | TK-10 > 100 µM | UACC-62 > 100 µM

CC(C)(C)C(=O)Nc1cccc(-c2ccc[nH]2)n1
inactive: BT-549 > 100 µM | CAKI-1 > 100 µM | CCRF-CEM > 100 µM | DU-145 > 100 µM | MCF7 > 100 µM | MDA-N > 100 µM | NCI-H226 > 100 µM | NCI/ADR-RES > 100 µM | OVCAR-4 > 55.6 µM | OVCAR-8 > 100 µM | PC-3 > 100 µM | RXF 393 > 100 µM | SF-539 > 100 µM | SK-MEL-5 68.7 µM | SK-OV-3 > 100 µM | SN12C > 100 µM | SNB-19 > 100 µM | T47D > 57.5 µM | TK-10 > 100 µM | UACC-62 86.9 µM
